# Data reported in ChEMBL document CHEMBL1156128, “Nitric oxide-donating carbonic anhydrase inhibitors for the treatment of open-angle glaucoma” (Bioorg Med Chem Lett, 2009).
# Tests used:
# Oryctolagus cuniculus = organism: Oryctolagus cuniculus; test: tissue or blood; settings: Aorta
# Description: Vasorelaxant activity against methoxiamin-induced contraction in rabbit aortic ring
# physchem = settings: buffer, pH 6
# Carbonic anhydrase 1 = Carbonic anhydrase 1 (Homo sapiens, UniProt P00915); test: Inhibition of human carbonic anhydrase 1 up to 100 uM by CO2 hydrase stopped flow assay
# Carbonic anhydrase 2 = Carbonic anhydrase 2 (Homo sapiens, UniProt P00918); test: Inhibition of human carbonic anhydrase 2 up to 100 uM by CO2 hydrase stopped flow assay
# Carbonic anhydrase 4 = Carbonic anhydrase 4 (Homo sapiens, UniProt P22748); test: Inhibition of human carbonic anhydrase 4 up to 100 uM by CO2 hydrase stopped flow assay
# Carbonic anhydrase 4, sequence (P22748 whole entry): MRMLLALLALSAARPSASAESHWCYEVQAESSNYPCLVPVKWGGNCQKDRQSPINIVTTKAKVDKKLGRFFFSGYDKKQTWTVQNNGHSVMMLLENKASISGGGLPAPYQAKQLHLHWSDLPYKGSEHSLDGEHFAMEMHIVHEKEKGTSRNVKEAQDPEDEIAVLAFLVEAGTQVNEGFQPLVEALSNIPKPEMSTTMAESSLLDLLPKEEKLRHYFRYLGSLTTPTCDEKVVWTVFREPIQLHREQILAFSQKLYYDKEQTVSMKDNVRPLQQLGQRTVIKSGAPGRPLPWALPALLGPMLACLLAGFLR
# Carbonic anhydrase 1, sequence (P00915 whole entry): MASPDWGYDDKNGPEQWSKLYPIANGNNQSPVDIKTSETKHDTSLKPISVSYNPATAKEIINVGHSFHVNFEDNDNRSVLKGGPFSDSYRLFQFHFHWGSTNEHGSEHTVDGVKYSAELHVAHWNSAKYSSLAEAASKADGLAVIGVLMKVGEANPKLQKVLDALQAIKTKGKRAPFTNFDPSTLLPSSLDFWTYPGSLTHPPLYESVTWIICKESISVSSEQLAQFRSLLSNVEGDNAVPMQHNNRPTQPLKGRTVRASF
SMILES,EC50 (Oryctolagus cuniculus) [µM],solubility (physchem) [mg/mL],Ki (Carbonic anhydrase 1),Ki (Carbonic anhydrase 2),Ki (Carbonic anhydrase 4)
CCN(C(=O)CCCCCO[N+](=O)[O-])[C@H]1C[C@H](C)S(=O)(=O)c2sc(S(N)(=O)=O)cc21,4.25,0.25,,,
CCN(C(=O)OCCCO[N+](=O)[O-])[C@H]1C[C@H](C)S(=O)(=O)c2sc(S(N)(=O)=O)cc21,2.05,15.1,,,
CCN(C(=O)OCC(CO[N+](=O)[O-])O[N+](=O)[O-])[C@H]1C[C@H](C)S(=O)(=O)c2sc(S(N)(=O)=O)cc21 (stereo not given in full),0.37,,,,
O=[N+]([O-])O[C@@H]1CO[C@H]2[C@@H]1OC[C@@H]2O [ISOSORBIDE MONONITRATE],10.8,< 20,Not Active,Not Active,Not Active
